Source: patent publication US9474780B2, “GIP and GLP-1 co-agonist compounds” (Eli Lilly and Company, priority 2015, dated 2016)
Numbered stars: 1 amine (or outer) side, 2 acyl side, 3 side chain; on linkers, the order of the positions; unused ones are H or OH. Square brackets hold non-standard residues; d marks the D form. Side chains are listed from the residue outwards. Peptide text beside a SMILES is read from it. * marks the point of attachment. C20 diacid = O=C(O)CCCCCCCCCCCCCCCCCCC(=O)*; γGlu = O=C(O)[C@H](CCC(=O)[*:2])N[*:1]; 1Nal = N[C@@H](Cc1cccc2ccccc12)C(=O)O; AEEA = NCCOCCOCC(=O)O; Aib = CC(C)(N)C(=O)O

Columns and labels:
[1] = target: T1, human GLP-1R (Homo sapiens, UniProt P43220); test: Functional hGLP-1R cAMP assay in HEK-293 clonal cells; assay type: cell-based; conditions: HEK293; percent of maximal response of hGLP-1(7-36)NH2
T1 construct: expressed in transfected cells; host or cells: 293HEK, Hygromycin-selected; crude plasma membranes
Method: (§1) After an incubation of 60 minutes at room temperature, the resulting increase in intracellular cAMP is quantitatively determined using the CisBio cAMP Dynamic 2 HTRF Assay Kit (Bedford, Mass.). Briefly, cAMP levels within the cell are detected by adding the cAMP-d2 conjugate in cell lysis buffer (20 μl) followed by the antibody anti-cAMP-Eu^3+-Cryptate, also in cell lysis buffer (20 μl). The resulting competitive assay is incubated for at least 60 minutes at room temperature, then detected using a PerkinElmer Envision® instrument with excitation at 320 nm and emission at 665 nm and 620 nm Envision units (emission at 665 nm/620 nm*10,000) are inversely proportional to the amount of cAMP present and are converted to nM cAMP per well using a cAMP standard curve. […] A relative EC50 value and percent top (Emax) is derived by non-linear regression analysis using the percent maximal response versus the concentration of the compound of the present invention, fitted to a four-parameter logistic equation.

[2] = Rat in vivo insulin secretion following intravenous glucose (IVGTT); conditions: s.c. 16 hour prior to glucose
Method: Male Wistar rats (Harlan Labs, Indianapolis, Ind.) are randomized by body weight and dosed 1.5 ml/kg s.c. 16 hour prior to glucose administration and then fasted. Doses are vehicle, 0.1, 0.3, 1, 3 and 10 nmol/kg. Animals are weighed, and then anesthetized with sodium pentobarbital (Nembutal Sodium solution; Ovation Pharmaceuticals) dosed i.p. (65 mg/kg, 30 mg/ml). A time zero blood sample is collected into EDTA tubes after which glucose is administered ([…], 5 ml/kg). Blood samples are collected at 2, 4, 6, 10, 20, and 30 minutes post glucose. Plasma glucose levels are determined using a Hitachi analyzer (Roche) and plasma insulin is measured by the MSD insulin assay (Meso Scale, Gaithersburg, Md.).

[3] = Weight loss, body composition and hepatic steatosis in DIO mice; assay type: in vivo, mouse; conditions: for Blood Glucose: Day 15
Method: The effects on weight loss, body composition and hepatic steatosis in DIO mice for compounds of the present invention are evaluated in C57/BL6 DIO mice. […] Animals are individually housed in a temperature-controlled (24° C.) facility with a 12 hour light/dark cycle (lights on 22:00), and free access to food and water. […] Daily body weight and food intake are measured throughout the study. Absolute changes in body weight are calculated by subtracting the body weight of the same animal prior to the first injection of compound. […] On Day 15, blood glucose is measured with Accu-Chek glucometer (Roche) from tail vein blood and then animals may be sacrificed and livers removed and frozen. Liver triglycerides, determined from homogenates of livers collected at sacrifice, and plasma cholesterol are measured on a Hitachi Modular P clinical analyzer. Statistical comparisons between groups are done using one-way ANOVA followed by Dunnett's multiple comparison test. The ED50 for weight loss lowering is determined in GraphPad Prism using the non-linear fit tool.

[4] = target: Human GCGR (Homo sapiens, UniProt P47871); test: Functional hGCGR cAMP assay in HEK-293 clonal cells
[5] = target: T2, human GIP-R (Homo sapiens, UniProt P48546); test: Functional hGIP-R cAMP assay in HEK-293 clonal cells; conditions: HEK293, read-out: Human GIP-R Emax
T2 sequence (P48546 22-466): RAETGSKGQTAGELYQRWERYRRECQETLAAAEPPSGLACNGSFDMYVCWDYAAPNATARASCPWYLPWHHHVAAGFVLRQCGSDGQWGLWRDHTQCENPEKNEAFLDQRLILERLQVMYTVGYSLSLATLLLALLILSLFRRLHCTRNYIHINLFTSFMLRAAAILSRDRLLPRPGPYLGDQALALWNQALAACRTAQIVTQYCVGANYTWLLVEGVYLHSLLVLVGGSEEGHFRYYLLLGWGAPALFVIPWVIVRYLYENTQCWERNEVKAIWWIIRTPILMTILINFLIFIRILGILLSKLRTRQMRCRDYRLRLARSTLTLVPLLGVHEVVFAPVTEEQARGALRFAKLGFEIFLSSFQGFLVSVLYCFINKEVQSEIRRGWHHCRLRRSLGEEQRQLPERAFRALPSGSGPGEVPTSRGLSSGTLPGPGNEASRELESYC
Method: as §1

[6] = target: T1, human GLP-1R; assay type: binding
[7] = Pharmacokinetics in cynomolgus monkeys; assay type: in vivo; conditions: cynomolgus monkey, plasma, single SC 0.2 mg/kg, male monkeys, n = 2
Method: The compounds are administered by a single intravenous or subcutaneous dose (0.2 mg/kg) in 20 mM citrate buffer (pH 7.0) at a volume of 0.21 ml/kg. Blood is collected from each animal at 2, 4, 8, 12, 24, 48, 72, 96, 120, 144, 168, 204, 240, and 312 hours post-dosage. The plasma concentrations of compounds of the present invention are determined by a LC/MS method. Briefly, a compound of the present invention is extracted from 100% Monkey plasma sample (50 μl) diluted with 1×PBS (150 μl) and mixed with N-butanol (400 μl). Three distinct liquid layers are formed with the compound located in the top layer. A volume of 200 μl is transferred to a v-bottom 96-well plate, dried down using heated Nitrogen gas and reconstituted with 100 μl of 30% acetonitrile/0.1% formic acid. 20 μl of the reconstituted sample is injected onto a Supelco Analytical Discovery bio wide C5 3 μm column. The column effluent is directed into a Thermo Q-Exactive mass spectrometer for detection and quantitation.

T1 sequence (P43220 24-463): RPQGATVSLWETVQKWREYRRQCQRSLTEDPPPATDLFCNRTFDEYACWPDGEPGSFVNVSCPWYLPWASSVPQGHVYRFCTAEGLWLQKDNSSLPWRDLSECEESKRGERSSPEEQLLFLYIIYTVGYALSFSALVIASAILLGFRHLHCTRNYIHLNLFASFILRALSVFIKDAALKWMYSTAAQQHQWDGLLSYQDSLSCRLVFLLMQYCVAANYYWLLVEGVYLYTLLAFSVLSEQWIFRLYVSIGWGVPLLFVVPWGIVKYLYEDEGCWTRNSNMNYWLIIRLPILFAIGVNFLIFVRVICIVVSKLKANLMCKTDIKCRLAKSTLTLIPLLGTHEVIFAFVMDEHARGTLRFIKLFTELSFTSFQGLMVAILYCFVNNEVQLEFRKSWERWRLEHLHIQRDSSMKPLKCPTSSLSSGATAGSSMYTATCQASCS
Chain of Human GCGR (P47871 26-477): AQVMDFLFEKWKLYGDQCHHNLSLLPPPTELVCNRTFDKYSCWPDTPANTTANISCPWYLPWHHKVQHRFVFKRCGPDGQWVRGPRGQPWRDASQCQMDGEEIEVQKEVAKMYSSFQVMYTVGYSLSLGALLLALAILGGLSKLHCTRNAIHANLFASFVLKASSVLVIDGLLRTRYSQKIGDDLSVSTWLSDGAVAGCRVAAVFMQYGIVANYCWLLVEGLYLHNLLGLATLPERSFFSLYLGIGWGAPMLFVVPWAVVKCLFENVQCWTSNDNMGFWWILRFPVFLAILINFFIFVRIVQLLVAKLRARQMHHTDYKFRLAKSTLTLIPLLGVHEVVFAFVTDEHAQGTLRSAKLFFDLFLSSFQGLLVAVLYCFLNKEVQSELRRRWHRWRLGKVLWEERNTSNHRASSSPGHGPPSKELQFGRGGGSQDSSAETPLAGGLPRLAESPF

Q: Which Emax [1] does the source give for CC[C@H](C)[C@H](NC(=O)[C@H](CC(C)C)NC(=O)[C@H](Cc1c[nH]c2ccccc12)NC(=O)[C@H](CCC(N)=O)NC(=O)[C@@H](NC(=O)[C@H](Cc1ccccc1)NC(=O)[C@H](C)NC(=O)[C@H](CCCCNC(=O)COCCOCCNC(=O)COCCOCCNC(=O)CC[C@H](NC(=O)CC[C@H](NC(=O)CCCCCCCCCCCCCCCCCCC(=O)O)C(=O)O)C(=O)O)NC(=O)[C@H](CCC(N)=O)NC(=O)[C@H](C)NC(=O)[C@@H](NC(=O)[C@H](CCCCN)NC(=O)[C@H](CC(=O)O)NC(=O)[C@H](CC(C)C)NC(=O)C(C)(C)NC(=O)[C@@H](NC(=O)[C@H](CO)NC(=O)[C@H](Cc1ccc(O)cc1)NC(=O)[C@H](CC(=O)O)NC(=O)[C@H](CO)NC(=O)[C@@H](NC(=O)[C@H](Cc1ccccc1)NC(=O)[C@@H](NC(=O)CNC(=O)[C@H](CCC(=O)O)NC(=O)C(C)(C)NC(=O)[C@@H](N)Cc1ccc(O)cc1)[C@@H](C)O)[C@@H](C)O)[C@@H](C)CC)[C@@H](C)CC)C(C)C)C(=O)N[C@@H](C)C(=O)NCC(=O)NCC(=O)N1CCC[C@H]1C(=O)N[C@@H](CO)C(=O)N[C@@H](CO)C(=O)NCC(=O)N[C@@H](C)C(=O)N1CCC[C@H]1C(=O)N1CCC[C@H]1C(=O)N1CCC[C@H]1C(=O)N[C@@H](CO)C(N)=O [Example 5] here?
A: 105 ± 4%

Q: And the “% max increase of insulin AUC” value [2]?
A: 349 +/− 39%

Q: What about the “ED50 for insulin, rat IVGTT” value [2] of the same compound?
A: 1.02 nmol/kg

Q: What about the “% Change from starting body weight” value ([3]; Table 9, 10 nmol/kg) of the same compound?
A: −23.42 ± 1.43 %

Q: And the “% Change from starting fat mass” value ([3]; Table 9, 10 nmol/kg)?
A: −51.28 ± 1.89 %

Q: And the “% Change from starting body weight” value ([3]; Table 9, 30 nmol/kg)?
A: −26.84 ± 3.14 %

Q: And the “% Change from starting fat mass” value ([3]; Table 9, 30 nmol/kg)?
A: −62.77 ± 5.49 %

Q: What about the “% Change from starting body weight” value ([3]; Table 9, 100 nmol/kg) of the same compound?
A: −37.86 ± 2.25 %

Q: And the “% Change from starting fat mass” value ([3]; Table 9, 100 nmol/kg)?
A: −81.08 ± 1.68 %

Q: What about the “Liver Triglycerides” value ([3]; Table 12, 10 nmol/kg) of the same compound?
A: 48.30 ± 8.14 mg/g tissue

Q: What about the “Plasma Cholesterol” value ([3]; Table 12, 10 nmol/kg) of the same compound?
A: 126.6 ± 9.67 mg/dL

Q: What about the “Blood Glucose” value ([3]; Table 12, 10 nmol/kg) of the same compound?
A: 111.00 ± 6.56 mg/dL

Q: What about the “Liver Triglycerides” value ([3]; Table 12, 30 nmol/kg) of the same compound?
A: 39.60 ± 4.71 mg/g tissue

Q: And the “Plasma Cholesterol” value ([3]; Table 12, 30 nmol/kg)?
A: 108.2 ± 13.84 mg/dL

Q: And the “Blood Glucose” value ([3]; Table 12, 30 nmol/kg)?
A: 104.5 ± 5.30 mg/dL

Q: And the “Liver Triglycerides” value ([3]; Table 12, 100 nmol/kg)?
A: 67.96 ± 13.53 mg/g tissue

Q: What about the “Plasma Cholesterol” value ([3]; Table 12, 100 nmol/kg) of the same compound?
A: 108.6 ± 4.83 mg/dL

Q: And the “Blood Glucose” value ([3]; Table 12, 100 nmol/kg)?
A: 105.3 ± 6.16 mg/dL

Q: What about the EC50 [4] of the same compound?
A: > 1000 nM

Q: And the Emax [5]?
A: 105 ± 2%

Q: Which “Molar ratio of hGLP-1R/hGIP-R” value ([6]; normalized by factor 4.53 from native GIP and GLP-1 binding) does the source give for CC[C@H](C)[C@H](NC(=O)[C@H](CC(C)C)NC(=O)[C@H](Cc1c[nH]c2ccccc12)NC(=O)[C@H](CCC(N)=O)NC(=O)[C@@H](NC(=O)[C@H](Cc1cccc2ccccc12)NC(=O)[C@H](C)NC(=O)[C@H](CCCCNC(=O)COCCOCCNC(=O)COCCOCCNC(=O)CC[C@H](NC(=O)CCCCCCCCCCCCCCCCCCC(=O)O)C(=O)O)NC(=O)[C@H](CCC(N)=O)NC(=O)[C@H](C)NC(=O)[C@@H](NC(=O)[C@H](CCCCN)NC(=O)[C@H](CC(=O)O)NC(=O)[C@H](CC(C)C)NC(=O)C(C)(C)NC(=O)[C@@H](NC(=O)[C@H](CO)NC(=O)[C@H](Cc1ccc(O)cc1)NC(=O)[C@H](CC(=O)O)NC(=O)[C@H](CO)NC(=O)[C@@H](NC(=O)[C@H](Cc1ccccc1)NC(=O)[C@@H](NC(=O)CNC(=O)[C@H](CCC(=O)O)NC(=O)C(C)(C)NC(=O)[C@@H](N)Cc1ccc(O)cc1)[C@@H](C)O)[C@@H](C)O)[C@@H](C)CC)[C@@H](C)CC)C(C)C)C(=O)N[C@@H](C)C(=O)NCC(=O)NCC(=O)N1CCC[C@H]1C(=O)N[C@@H](CO)C(=O)N[C@@H](CO)C(=O)NCC(=O)N[C@@H](C)C(=O)N1CCC[C@H]1C(=O)N1CCC[C@H]1C(=O)N1CCC[C@H]1C(=O)N[C@@H](CO)C(N)=O [Example 8] (H-Y[Aib]EGTFTSDYSI[Aib]LDKIAQK([AEEA-AEEA-γGlu-C20 diacid])A[1Nal]VQWLIAGGPSSGAPPPS-NH2) here?
A: 0.99

Q: And the “Absolute ratio of hGLP-1R/hGIP-R” value ([6]; ratio of Ki values)?
A: 4.5

Q: And the Emax [1]?
A: 88.4 ± 2.3%

Q: And the CL/F [7]?
A: 4.7 mL/h/kg

Q: And the Cmax [7]?
A: 1000 ng/mL

Q: What about the AUC(0-inf) ([7]; read-out: Mean AUC0-inf) of the same compound?
A: 42800 ng·h/mL

Q: And the half-life ([7]; read-out: Mean T1/2 (converted))?
A: 23 h

Q: What about the Tmax ([7]; read-out: Mean Tmax) of the same compound?
A: 10 h

Q: What about the “% max increase of insulin AUC” value [2] of the same compound?
A: 324 +/− 30%

Q: And the “ED50 for insulin, rat IVGTT” value [2]?
A: 6.13 nmol/kg

Q: And the “% Change from starting body weight” value ([3]; Table 10, 10 nmol/kg)?
A: −17.13 ± 0.81 %

Q: And the “% Change from starting fat mass” value ([3]; Table 10, 10 nmol/kg)?
A: −34.20 ± 1.62 %

Q: What about the “% Change from starting body weight” value ([3]; Table 10, 30 nmol/kg) of the same compound?
A: −25.27 ± 0.70 %

Q: What about the “% Change from starting fat mass” value ([3]; Table 10, 30 nmol/kg) of the same compound?
A: −54.24 ± 2.35 %

Q: And the “% Change from starting body weight” value ([3]; Table 10, 100 nmol/kg)?
A: −29.91 ± 2.03 %

Q: What about the “% Change from starting fat mass” value ([3]; Table 10, 100 nmol/kg) of the same compound?
A: −65.23 ± 6.69 %

Q: What about the “Plasma Cholesterol” value ([3]; Table 13, 10 nmol/kg) of the same compound?
A: 158.8 ± 7.57 mg/dL

Q: What about the “Blood Glucose” value ([3]; Table 13, 10 nmol/kg) of the same compound?
A: 114.7 ± 4.61 mg/dL

Q: What about the “Plasma Cholesterol” value ([3]; Table 13, 30 nmol/kg) of the same compound?
A: 139.4 ± 6.83 mg/dL

Q: What about the “Blood Glucose” value ([3]; Table 13, 30 nmol/kg) of the same compound?
A: 117.1 ± 8.26 mg/dL

Q: What about the “Plasma Cholesterol” value ([3]; Table 13, 100 nmol/kg) of the same compound?
A: 127.8 ± 6.34 mg/dL

Q: What about the “Blood Glucose” value ([3]; Table 13, 100 nmol/kg) of the same compound?
A: 125.4 ± 6.30 mg/dL

Q: And the EC50 [4]?
A: > 1000 nM

Q: What about the Emax [5] of the same compound?
A: 108 ± 4%
